Source: PubChem BioAssay AID328 (DTP/NCI, 2004)
Several values for one entry are separate records, joined by “and”; a condition that tells them apart may be missing. Identical values can stand only once. Toxic doses and inconclusive results are not listed.

Tested on: BDF1 mice, P388 leukemia ip, median survival T/C
Assay: NCI In Vivo Anticancer Drug Screen. Data for tumor model P388 Leukemia (intraperitoneal) in B6D2F1 (BDF1) mice
Conditions: endpoint: median survival time, higher = longer survival
How it was run: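 Steps: implant the tumour, treat one group with compound and another with vehicle, record survival, then divide treated by control.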

[1] = dose: 6.0 mg/kg/injection, schedule: Q01DX009 (ip), vehicle: Klucel (hydroxypropylcellulose) (HPC)
[2] = dose: 25.0 mg/kg/injection, schedule: Q01DX009 (ip), vehicle: saline
[3] = dose: 50.0 mg/kg/injection, schedule: Q01DX009 (ip), vehicle: saline
[4] = dose: 50.0 mg/kg/injection, schedule: Q04DX003 (ip), vehicle: saline
[5] = dose: 100.0 mg/kg/injection, schedule: Q01DX009 (ip), vehicle: saline
[6] = dose: 100.0 mg/kg/injection, schedule: Q04DX003 (ip), vehicle: saline
[7] = dose: 25.0 mg/kg/injection, schedule: Q04DX003 (ip), vehicle: saline

With `O=NN(CCCl)C(=O)N[C@@H]1CCCC[C@H]1NC(=O)N(CCCl)N=O` the T/C (dose: 0.12 mg/kg/injection, schedule: Q04DX003 (ip), vehicle: Klucel (hydroxypropylcellulose) (HPC)) was 120 % of control, the T/C (dose: 0.18 mg/kg/injection, schedule: Q01DX009 (ip), vehicle: Klucel (hydroxypropylcellulose) (HPC)) was 100 % of control and the T/C (dose: 0.25 mg/kg/injection, schedule: Q04DX003 (ip), vehicle: Klucel (hydroxypropylcellulose) (HPC)) was 100 % of control. The T/C (dose: 0.37 mg/kg/injection, schedule: Q01DX009 (ip), vehicle: Klucel (hydroxypropylcellulose) (HPC)) was 88 % of control, the T/C (dose: 0.5 mg/kg/injection, schedule: Q04DX003 (ip), vehicle: Klucel (hydroxypropylcellulose) (HPC)) was 108 % of control and the T/C (dose: 0.75 mg/kg/injection, schedule: Q01DX009 (ip), vehicle: Klucel (hydroxypropylcellulose) (HPC)) was 88 % of control. The T/C (dose: 1.0 mg/kg/injection, schedule: Q04DX003 (ip), vehicle: Klucel (hydroxypropylcellulose) (HPC)) was 150 % of control, the T/C (dose: 1.5 mg/kg/injection, schedule: Q01DX009 (ip), vehicle: Klucel (hydroxypropylcellulose) (HPC)) was 88 % of control and the T/C (dose: 2.0 mg/kg/injection, schedule: Q04DX003 (ip), vehicle: Klucel (hydroxypropylcellulose) (HPC)) was 113 % of control. The T/C (dose: 3.0 mg/kg/injection, schedule: Q04DX003 (ip), vehicle: Klucel (hydroxypropylcellulose) (HPC)) was 109 % of control, the T/C (dose: 4.5 mg/kg/injection, schedule: Q01DX009 (ip), vehicle: Klucel (hydroxypropylcellulose) (HPC)) was 191 % of control and the T/C [1] was 172 % of control. The T/C (dose: 6.0 mg/kg/injection, schedule: Q04DX003 (ip), vehicle: Klucel (hydroxypropylcellulose) (HPC)) was 150 % of control and 162 % of control and 172 % of control, the T/C (dose: 7.0 mg/kg/injection, schedule: Q01DX009 (ip), vehicle: Klucel (hydroxypropylcellulose) (HPC)) was 233 % of control and the T/C (dose: 9.0 mg/kg/injection, schedule: Q04DX003 (ip), vehicle: Klucel (hydroxypropylcellulose) (HPC)) was 213 % of control. The T/C (dose: 11.0 mg/kg/injection, schedule: Q01DX009 (ip), vehicle: Klucel (hydroxypropylcellulose) (HPC)) was 237 % of control and 250 % of control, the T/C (dose: 12.0 mg/kg/injection, schedule: Q01DX009 (ip), vehicle: Klucel (hydroxypropylcellulose) (HPC)) was 250 % of control and the T/C (dose: 12.0 mg/kg/injection, schedule: Q04DX003 (ip), vehicle: Klucel (hydroxypropylcellulose) (HPC)) was 159 % of control. For the same compound, the T/C (dose: 12.5 mg/kg/injection, schedule: Q01DX009 (ip), vehicle: Klucel (hydroxypropylcellulose) (HPC)) was 155 % of control, the T/C (dose: 13.0 mg/kg/injection, schedule: Q04DX003 (ip), vehicle: Klucel (hydroxypropylcellulose) (HPC)) was 250 % of control and 204 % of control and the T/C (dose: 16.5 mg/kg/injection, schedule: Q01DX009 (ip), vehicle: Klucel (hydroxypropylcellulose) (HPC)) was 250 % of control. For the same compound, the T/C (dose: 20.0 mg/kg/injection, schedule: Q04DX003 (ip), vehicle: Klucel (hydroxypropylcellulose) (HPC)) was 260 % of control and 272 % of control, the T/C (dose: 25.0 mg/kg/injection, schedule: Q01DX009 (ip), vehicle: Klucel (hydroxypropylcellulose) (HPC)) was 272 % of control and 280 % of control and the T/C [2] was 250 % of control. For the same compound, the T/C (dose: 25.0 mg/kg/injection, schedule: Q04DX003 (ip), vehicle: Klucel (hydroxypropylcellulose) (HPC)) was 222 % of control, the T/C (dose: 30.0 mg/kg/injection, schedule: Q04DX003 (ip), vehicle: Klucel (hydroxypropylcellulose) (HPC)) was 250 % of control and 272 % of control and 300 % of control and the T/C (dose: 35.0 mg/kg/injection, schedule: Q01DX009 (ip), vehicle: saline) was 91 % of control. For the same compound, the T/C (dose: 40.0 mg/kg/injection, schedule: Q04DX003 (ip), vehicle: Klucel (hydroxypropylcellulose) (HPC)) was 300 % of control, the T/C (dose: 44.0 mg/kg/injection, schedule: Q04DX003 (ip), vehicle: Klucel (hydroxypropylcellulose) (HPC)) was 250 % of control and the T/C (dose: 50.0 mg/kg/injection, schedule: Q04DX003 (ip), vehicle: Klucel (hydroxypropylcellulose) (HPC)) was 272 % of control. The T/C (dose: 67.0 mg/kg/injection, schedule: Q04DX003 (ip), vehicle: Klucel (hydroxypropylcellulose) (HPC)) was 241 % of control and 250 % of control and 300 % of control, the T/C (dose: 100.0 mg/kg/injection, schedule: Q04DX003 (ip), vehicle: Klucel (hydroxypropylcellulose) (HPC)) was 260 % of control and 150 % of control and 195 % of control and the T/C (dose: 150.0 mg/kg/injection, schedule: Q04DX003 (ip), vehicle: Klucel (hydroxypropylcellulose) (HPC)) was 95 % of control. The T/C (dose: 200.0 mg/kg/injection, schedule: Q04DX003 (ip), vehicle: Klucel (hydroxypropylcellulose) (HPC)) was 86 % of control and 122 % of control.

With `CN(C)CCC(=O)c1ccccc1` the T/C [2] was 100 % of control.

With `CC[CH2][Pb]([CH2]CC)([CH2]CC)[O]C(=O)C(F)(F)F` the T/C (dose: 4.0 mg/kg/injection, schedule: Q01DX009 (ip), vehicle: Klucel (hydroxypropylcellulose) (HPC)) was 113 % of control, the T/C (dose: 4.0 mg/kg/injection, schedule: Q01DX009 (ip), vehicle: saline with Tween-80) was 122 % of control and the T/C [1] was 111 % of control. For the same compound, the T/C (dose: 6.0 mg/kg/injection, schedule: Q01DX009 (ip), vehicle: saline with Tween-80) was 150 % of control.

For `CC(=O)n1nc(Cl)c2ccc([N+](=O)[O-])cc21`, the T/C (dose: 50.0 mg/kg/injection, schedule: Q01DX009 (ip), vehicle: saline with Tween-80) was 97 % of control, the T/C (dose: 100.0 mg/kg/injection, schedule: Q01DX009 (ip), vehicle: saline with Tween-80) was 100 % of control and the T/C (dose: 200.0 mg/kg/injection, schedule: Q01DX009 (ip), vehicle: saline with Tween-80) was 100 % of control.

For `Cc1ccnc(NC2=CC(=O)C(=O)c3ccccc32)c1`, the T/C [3] was 100 % of control, the T/C (dose: 75.0 mg/kg/injection, schedule: Q01DX009 (ip), vehicle: saline) was 118 % of control and the T/C (dose: 112.5 mg/kg/injection, schedule: Q01DX009 (ip), vehicle: saline) was 118 % of control.

`CCOC(=O)c1cnc(C)[nH]c1=O` was tested, and the T/C [2] was 113 % of control, the T/C [3] was 118 % of control and the T/C [4] was 100 % of control. The T/C [5] was 100 % of control, the T/C [6] was 104 % of control and the T/C (dose: 200.0 mg/kg/injection, schedule: Q04DX003 (ip), vehicle: saline) was 86 % of control.

With `N#CCSc1ncnc2nc[nH]c12` the T/C (dose: 30.0 mg/kg/injection, schedule: Q01DX010 (ip), vehicle: saline) was 95 % of control and 100 % of control, the T/C (dose: 60.0 mg/kg/injection, schedule: Q01DX010 (ip), vehicle: saline) was 100 % of control and the T/C (dose: 120.0 mg/kg/injection, schedule: Q01DX010 (ip), vehicle: saline) was 100 % of control.

For `Nc1ccc2ccccc2c1N=Nc1ccc(C(O)C(N)CO)cc1` (stereo unspecified), the T/C (dose: 6.25 mg/kg/injection, schedule: Q01DX009 (ip), vehicle: saline sonified) was 100 % of control, the T/C (dose: 12.5 mg/kg/injection, schedule: Q01DX009 (ip), vehicle: saline sonified) was 112 % of control and the T/C (dose: 25.0 mg/kg/injection, schedule: Q01DX009 (ip), vehicle: saline sonified) was 100 % of control.

`COc1cc2cc(c1Cl)NC(=O)/C=C/[C@]1(C)O[C@H]1[C@H](C)[C@@H]1C[C@@](O)(NC(=O)O1)[C@H](OC)C=C/C=C(\C)C2` was tested, and the T/C (dose: 0.2 micrograms/kg/injection, schedule: Q01DX009 (ip), vehicle: saline + alcohol) was 100 % of control, the T/C (dose: 0.4 micrograms/kg/injection, schedule: Q01DX009 (ip), vehicle: saline + alcohol) was 100 % of control and the T/C (dose: 0.8 micrograms/kg/injection, schedule: Q01DX009 (ip), vehicle: saline + alcohol) was 90 % of control. The T/C (dose: 1.6 micrograms/kg/injection, schedule: Q01DX009 (ip), vehicle: saline + alcohol) was 100 % of control, the T/C (dose: 3.1 micrograms/kg/injection, schedule: Q01DX009 (ip), vehicle: saline + alcohol) was 115 % of control and the T/C (dose: 6.2 micrograms/kg/injection, schedule: Q01DX009 (ip), vehicle: saline + alcohol) was 115 % of control. For the same compound, the T/C (dose: 12.5 micrograms/kg/injection, schedule: Q01DX009 (ip), vehicle: saline + alcohol) was 87 % of control and 110 % of control, the T/C (dose: 25.0 micrograms/kg/injection, schedule: Q01DX009 (ip), vehicle: saline + alcohol) was 87 % of control and 110 % of control and the T/C (dose: 50.0 micrograms/kg/injection, schedule: Q01DX009 (ip), vehicle: saline + alcohol) was 91 % of control and 110 % of control. The T/C (dose: 100.0 micrograms/kg/injection, schedule: Q01DX009 (ip), vehicle: saline + alcohol) was 91 % of control and 95 % of control.

In the case of `CN(C)CCC=C1c2ccccc2-c2ccccc21`, the T/C (dose: 12.5 mg/kg/injection, schedule: Q04DX003 (ip), vehicle: saline) is reported as 100 % of control, the T/C [2] is reported as 115 % of control and the T/C [7] is reported as 90 % of control. For the same compound, the T/C [3] was 109 % of control and 120 % of control, the T/C [4] was 100 % of control and the T/C (dose: 75.0 mg/kg/injection, schedule: Q04DX003 (ip), vehicle: saline) was 113 % of control. For the same compound, the T/C [5] was 113 % of control and the T/C (dose: 115.0 mg/kg/injection, schedule: Q04DX003 (ip), vehicle: saline) was 95 % of control.

For `CCCCCCc1ccccc1`, the T/C (dose: 100.0 mg/kg/injection, schedule: Q04DX003 (ip), vehicle: saline with Tween-80) was 109 % of control, the T/C (dose: 200.0 mg/kg/injection, schedule: Q04DX003 (ip), vehicle: saline with Tween-80) was 109 % of control and the T/C (dose: 400.0 mg/kg/injection, schedule: Q04DX003 (ip), vehicle: saline with Tween-80) was 118 % of control.

`OCCN1CCN(CCCN2c3ccccc3CCc3ccccc32)CC1` was tested, and the T/C [7] was 103 % of control and 117 % of control, the T/C [4] was 100 % of control and 107 % of control and the T/C [6] was 115 % of control and 116 % of control.
